Assays:
[1] = system: iFA phenotype of mesenchymal-like cells on 13 kPa hydrogels; experiment: iFA-prevention phenotypic high-content drug screen (iFA model); type: cell-based, human
Protocol: Mesenchymal-like cells were cultured on 13 kPa functionalized polyacrylamide gels that were prepared as follows. 187.5 μl of 40% acrylamide, 60 μl of 2% bis-acrylamide and 8.55 μl of sodium bisulfate in a final volume of 990 μl of water was incubated for 20 min at room temperature to degas the mixture. To this mixture, 0.10% ammonium persulfate and 0.15% TEMED were added, mixed and 100 μl of the solution was added onto a 0.4% 3-(Trimethoxysily) propyl methacrylate pH 3.5 treated coverslip. A 2% dimethyl dichlorosilane in chloroform treated round glass coverslip was then inverted on the acrylamide solution and allowed to polymerize for 15 min between the two surfaces. The top coverslip was gently removed, and the bottom coverslips with the hydrogel were transferred to appropriate multi-well low adherent tissue culture plate containing coupling buffer (0.1 M sodium phosphate dibasic, 0.1 M sodium phosphate monobasic) pH 8. To functionalize the hydrogel, 1 part of 0.1 M p-benzoquinone in dioxane was added to the hydrogels containing 4 parts of coupling buffer and incubated at 37° C. for 30 min. The gel was then successively washed with 20% dioxane in water, water, 0.1 M sodium acetate buffer at pH 4.0 containing 1.0 M sodium chloride, 0.1 M sodium bicarbonate solution at pH 8.5 containing 1.0 M sodium chloride, and finally with coupling buffer at pH 7.5. The hydrogels were then coated with 0.1% gelatin for 2 hrs prior to seeding the cells. Cells were seeded at a density of 3000 cells/cm^2.
A phenotypic high-content drug screen was prepared to identify compounds capable of preventing the iFA phenotype in a 96-well format. An ImageXpress XL high-throughput imager with a 4× Plan objective (N/A 0.20) was used with image based focusing. Briefly, 100 μL media were plated in each well of 96 well plate using a Thermo Multidrop non-contact dispenser. Using a custom V&P pin tool mounted to a Beckman FX liquid handler, 1.5 μL compounds or DMSO were added. Mesenchymal-like cells were added as a suspension using the Multidrop at a density of 3.5×10^3 cells/well. The resulting compound concentration was 10 μM. Cells were imaged after 7 days of incubation at 37° C. and 5% CO2: A final of 0.5 μg/ml of Calcein AM and/or 10 μg/ml propidium iodide (viability dye) with 1 μg/ml Hoechst 33342 were added and imaged using the ImageXpress XL system. Data mining was performed using a custom module consisting of the following steps: The image background was removed using a top-hat filter with 25 μm round shape polisher. Next, cellular aggregates and individual spindle-shaped cells were identified. Aggregates of cells were defined by size with a cut-off of 60 to 200 micron and an intensity of at least 200 gray scales over background. Individual spindle-shaped cells were identified as smaller objects with cut-offs from 15 to 100 micron and a lower intensity of at least 70 gray scales over background.
Additional morphometric measurements were made by counting labeled cell nuclei and measuring total area covered with cells per well. The data resulting from the screen were batch exported through MetaXpress and uploaded into a Collaborative Drug Discovery (CDD) cloud based database (Ekins and Bunin, 2013, Methods in molecular biology 993, 139-154.). Hits were selected on a cut-off of more than 3 standard deviations from mean using data normalized to reference wells in each plate. IC50 values (the half maximal inhibitory concentration) from confirmation experiments were calculated from dose-response signal curves using the Prism software (GraphPad Software).
Signal-to-background (S/B) ratio, standard variation and variation coefficients were calculated as the signal of DMSO treated wells divided by the signal of the hit compound (AA5) treated wells. […]

[2] = system: iFA phenotype of mesenchymal-like cells on 13 kPa hydrogels; experiment: iFA resolution screen (reversal of fibrosis) in the iFA model; type: cell-based, human; settings: phenotype formed over 10 days, then compounds added
Protocol: Signal-to-background (S/B) ratio, standard variation and variation coefficients were calculated as the signal of DMSO treated wells divided by the signal of the hit compound (AA5) treated wells. Z′ values were used to measure assay quality which was calculated by the formula of Z′=1−3(SDTotal+SDBackground)/(MeanTotal−MeanBackground)(Inglese et al., 2006) where SDTotal and MeanTotal are the standard deviation and mean of signal for DMSO treated wells, and SDBackground and MeanBackground are the standard deviation and mean of signal for AA5 treated wells. Data normalization and curve fitting were performed as previously reported (Kariv et al., 1999, J Biomol Screen 4, 27-32.). Z′ values were obtained for the number of cellular aggregates and also calculated a phenotypic cell index as the product of cell number x area/Log(number of iFA aggregates+5). Secondary screening using α-SMA and collagen deposition was employed to further ensure efficacy and resolution of the iFA phenotype of the compounds. For the resolution screen, cells were seeded in a 96-well plate as mentioned above and compounds were added at day 13 to analyze their capacity to resolve the iFA phenotype using the same readouts as above. Dose response experiments were carried out as in the secondary screen but with at least 12 steps of a 1:1 dilution resulting in final compound concentrations from 500 μM to high nanomolar ranges.
The primary assay involved plating together the iPSCs and Table 1 compounds sourced from the library on day 1 on the hydrogel and examining the phenotype on day 7 of the culture as described herein. The secondary screen repeated the assay using compound sourced commercially or from additional library materials. The dose response refers to a 20 point dose course that ranges from picomolar to millimolar concentrations. […] As described herein, the cellular phenotype parameters evaluated included size, fluorescence intensity of the iFA phenotype, the shape factor of the cells/aggregates, and the cells' viability in the presence of viability dyes (Calcein AM).

## CNC(C)Cc1cccs1 (stereo not shown) [Methiopropamine]
[1]; 20 point dose course, picomolar to millimolar
  Dose response: +++ (+++ = strong effect)
[1]; assay repeated with compound sourced commercially or from additional library materials
  Efficacy in secondary screen: +++ (+++ = strong effect)
[1]; library compound plated with cells on day 1 on hydrogel, phenotype on day 7, 10 μM
  Efficacy in primary screen: +++ (+++ = strong effect)
[2]
  Reversal of fibrosis: Yes
